Reference: patent US20150031655A1, “COMBINATION OF LIVER X RECEPTOR MODULATOR AND ESTROGEN RECEPTOR MODULATOR FOR THE TREATMENT OF AGE-RELATED DISEASES” (UNIVERSITY OF NORTH DAKOTA, priority 2011, published 2015)

Columns and labels:
[1] = system: human neuroblastoma cells; settings: cited from earlier work
α-synuclein = assay: Western blot of α-synuclein protein levels in SH-SY5Y cells; assay type: cell-based, human; settings: for basal α-synuclein expression levels: treatment alone vs control
Protocol: (§1) Human neuroblastoma SH-SY5Y cells were grown in DMEM/F12 medium containing 10% fetal bovine serum (FBS) and 1% antibiotic/antimycotic mix. Cells were maintained at 37° C. in a saturated humidity atmosphere containing 95% air and 5% CO2.
(§2) Treated SH-SY5Y cells were washed with PBS and trypsinized to collect the cells and centrifuged at 5000 g. The pellet was washed again with PBS and homogenized in NE-PER tissue protein extraction reagent (Thermo Scientific, Rockford, Ill.) supplemented with protease and phosphatase inhibitors. Protein concentrations from the cytosolic and nuclear homogenates were determined with BCA protein assay.
(§3) Proteins (10 μg) were separated on SDS-PAGE gels, transferred to a polyvinylidene difluoride membrane (BioRad, Hercules, Calif.), and incubated with the following monoclonal antibodies: anti-TH mouse antibody (1:1000; Sigma Aldrich, Saint Louis, Mo.), anti-α-synuclein mouse antibody (1:500; Chemicon, Temecula, Calif.), anti-ERα rabbit antibody (1:500; Abcam, Cambridge, Mass.), anti-ERβ rabbit antibody (1:200; Upstate, Lake Placid, N.Y.), anti-LXRα rabbit antibody (1:500; Abcam, Cambridge, Mass.), anti-LXRβ mouse antibody (1:500; Abcam, Cambridge, Mass.).
(§4) β-actin and Lamin A were used as a gel loading control for cytosolic homogenates and nuclear homogenates respectively. The blots were developed with enhanced chemiluminescence (Immmun-star HRP chemiluminescent kit, Bio-Rad, Hercules, Calif.). Bands were visualized on a polyvinylidene difluoride membrane and analyzed by LabWorks 4.5 software on a UVP Bioimaging System (Upland, Calif.). Quantification of results was performed by densitometry and the results analyzed as total integrated densitometric values (arbitrary units).

[2] = in vivo; cited from earlier work
[3] = system: experimental intracerebral hemorrhage; settings: 10 μmol.Kg^−1.day^−1 i.p.; cited from earlier work
ERβ = molecular target: T1, ERβ (Homo sapiens, UniProt Q92731); assay: Western blot of ERβ levels in the nucleus (nuclear translocation), SH-SY5Y cells; assay type: cell-based; settings: 24 h
T1 construct: endogenous in cells; host or cells: SH-SY5Y human neuroblastoma cells
T1 sequence (Q92731 whole entry): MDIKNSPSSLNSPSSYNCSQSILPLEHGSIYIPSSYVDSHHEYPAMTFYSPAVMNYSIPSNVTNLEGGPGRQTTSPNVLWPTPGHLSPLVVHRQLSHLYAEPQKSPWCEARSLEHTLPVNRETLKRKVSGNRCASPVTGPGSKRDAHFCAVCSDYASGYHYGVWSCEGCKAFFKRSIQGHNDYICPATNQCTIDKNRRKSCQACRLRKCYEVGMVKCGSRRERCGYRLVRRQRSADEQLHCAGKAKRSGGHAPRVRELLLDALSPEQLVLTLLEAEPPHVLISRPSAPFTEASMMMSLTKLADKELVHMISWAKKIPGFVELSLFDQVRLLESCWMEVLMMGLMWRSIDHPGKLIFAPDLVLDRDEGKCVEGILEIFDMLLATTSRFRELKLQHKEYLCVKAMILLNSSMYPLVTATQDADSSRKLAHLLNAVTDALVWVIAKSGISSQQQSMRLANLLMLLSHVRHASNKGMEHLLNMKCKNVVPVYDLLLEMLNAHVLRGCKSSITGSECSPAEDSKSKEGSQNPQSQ
Protocol: as §1, §2, §3, §4

TH promoter = assay: Dual-luciferase TH promoter assay; assay type: cell-based, human
Protocol: Constructs encoding ERE and TH promoter conjugated to the firefly luciferase gene were used in the study. Human neuroblastoma SH-SY5Y cells were plated in 96-well plates at a density of 2×10^4 cells/well. The cells were transfected when 80% confluent with 0.25 μg of either ERE-firefly Luciferase reporter construct, LXRE-firefly Luciferase reporter construct, or TH promotor-firefly Luciferase promoter construct. Respective non-inducible reporter constructs containing constitutively expressing Renilla luciferase were used as negative internal controls. Constitutively expressing GFP constructs were used as positive control to determine transfection efficiency. Cells were incubated for 24 hours with Opti-MEM serum free medium (Invitrogen, Carlsbad, Calif.) containing the reporter constructs dissolved in transfection reagent. After 24 hours the medium was changed and the cells were incubated in normal DMEM/F12 medium containing 10% FBS and cells were treated with the different treatment regimens. The cells were treated in triplicate and harvested 24 hours later and subjected to dual-luciferases assay. The dual-luciferase assay was performed using a “Dual-Luciferase Reporter Assay System” from Promega (Madison, Wis.). The luminescence recorded is expressed as Relative Luminescence Units (RLU) and normalized to per mg protein. Unit value was assigned to control and the magnitude of differences among the samples is expressed relative to the unit value of control cells.

TH mRNA = assay: Real time RT-PCR of TH mRNA in SH-SY5Y cells; assay type: cell-based, human; settings: 24 h
Protocol: as §1
Total RNA was isolated and extracted from treated cells using the 5 prime “PerfectPure RNA tissue kit” (5 Prime, Inc., Gaithersburg, Md.). RNA estimation was performed using “Quant-iT RNA Assay Kit” using a Qubit fluorometer according to the manufacturer's protocol (Invitrogen, Carlsbad, Calif.). cDNA was synthesized by reverse transcribing 1 μg of extracted RNA using an “iScript cDNA synthesis kit” (BioRad, Hercules, Calif.). The oligomeric primers (Sigma, St Louis, Mo.) used to amplify the TH mRNA and α-synuclein mRNA are enumerated in Table 1. The cDNA amplification was performed using an iQ SYBR Green Supermix kit following the manufacturer's instructions (BioRad, Hercules, Calif.). The amplification was performed using an iCycler iQ Multicolor Real Time PCR Detection System (BioRad, Hercules, Calif.). The expression of specific TH and α-synuclein transcripts amplified were normalized to the expression of glyceraldehyde-3-phosphate dehydrogenase (GAPDH).

ARPE-19 cells = assay: ROS levels in ARPE-19 cells; assay type: cell-based; settings: ARPE-19, 24 h, co-treatment with 27-OHC, all at 10 μM
TNF-α = TNF-α levels in ARPE-19 cells; assay type: cell-based; settings: ARPE-19, 24 h, co-treatment with 27-OHC, all at 10 μM
TH = assay: Western blot of TH protein levels in SH-SY5Y neuroblastoma cells; assay type: cell-based, human; settings: 24 h
Protocol: as §1, §2, §3, §4

ERα/β = assay: EMSA, binding of nuclear ER to probe for the ERE half site in the TH promoter; assay type: cell-based, human

Q: For `CC(C)C(O)CC[C@@H](C)[C@H]1CC[C@H]2[C@@H]3CC=C4C[C@@H](O)CC[C@]4(C)[C@H]3CC[C@]12C` (some centres unmarked) [24-OHC, 24-hydroxycholesterol], which “27-OHC-induced effects on TH” value [1] is on record?
A: The value was “reverse”.

Q: What about the “27-OHC-induced effects on α-synuclein” value [1] of the same molecule?
A: Its value is “reverse”.

Q: Which “basal α-synuclein expression levels” value (α-synuclein) does the source give for `C[C@]12CC[C@@H]3c4ccc(O)cc4C[C@@H](CCCCCCCCC[S+]([O-])CCCC(F)(F)C(F)(F)F)[C@H]3[C@@H]1CC[C@@H]2O` (some centres unmarked) [ICI 182780, Fulvestrant] here?
A: Its value is “no effect”.

Q: Which results are given for `CCC1=C(C)c2cc3[n-]c(cc4[n-]c(cc5nc(cc1n2)C(C)=C5CC)c(C)c4CCC(=O)O)c(CCC(=O)O)c3C.[Cl-].[Cl-].[Sn+4]` [SnMP, Tin-mesoporphyrin IX]?
A: blood brain barrier passage [2]: crosses; protection against experimental intracerebral hemorrhage [3]: protect

Q: For `C[C@]12CC[C@@H]3c4ccc(O)cc4CC[C@H]3[C@@H]1CC[C@@H]2O` [estradiol, 17β-estradiol], which “27-OHC-induced attenuation in the nuclear translocation of ERβ” value (ERβ; concomitant with 10 μM 27-OHC) is on record?
A: The value was “completely reduced”.

Q: And the “nuclear translocation / nuclear levels of ERβ” value (ERβ; treatment alone vs control)?
A: Its value is “increases”.

Q: And the “increase in basal TH promoter activity” value (TH promoter; SH-SY5Y transfected with TH promoter-luciferase, 24 h)?
A: Its value is 2.5 fold.

Q: What about the “27-OHC-induced reduction of TH promoter activity” value (TH promoter; concomitant with 27-OHC) of the same molecule?
A: Its value is “completely reversed”.

Q: What about the “27-OHC-induced attenuation of TH mRNA” value (TH mRNA; concomitant with 10 μM 27-OHC) of the same molecule?
A: Its value is “completely reversed”.

Q: What about the “TH mRNA” value (TH mRNA; treatment alone vs control) of the same molecule?
A: The value was “increase”.

Q: What about the “27-OHC-induced increase in ROS levels” value (ARPE-19 cells) of the same molecule?
A: Its value is “not”.

Q: And the “effect of ECHS on 27-OHC-induced increase in α-synuclein expression” value (α-synuclein; estradiol added to 27-OHC+ECHS)?
A: The value was “does not alter”.

Q: And the α-synuclein expression (α-synuclein; in combination with ECHS)?
A: The α-synuclein expression was “no effect”.

Q: And the “basal α-synuclein expression levels” value (α-synuclein)?
A: The value was “no effect”.

Q: And the “27-OHC-induced increase in TNF-α levels” value (TNF-α)?
A: The value was “reduced”.

Q: And the TH protein levels (TH; concomitant with 10 μM 27-OHC, compared to control or 27-OHC)?
A: The TH protein levels was “significant increase”.

Q: And the “TH protein levels / TH expression” value (TH; treatment alone vs control (10 μM 27-OHC, 1 nM estradiol, 10 μM GW3965, 10 μM ECHS))?
A: Its value is “profound increase”.

Q: And the “binding of nuclear ER to the DNA probe corresponding to the ERE-half site on the TH promoter” value (ERα/β)?
A: The value was “significantly increases”.

Q: And the “inhibitory effects of 27-OHC on binding of ER to the exogenous DNA probe” value (ERα/β)?
A: Its value is “completely reverses”.
